Data reported in patent US12653190B2, “Heteroaryl-triazole compounds as pesticides” (Bayer Aktiengesellschaft, priority 2020, dated 2026).

Columns and labels:
Assay type in all cases: in vivo
[1] = test system: adult brown dog ticks (Rhipicephalus sanguineus); experiment: Rhipicephalus sanguineus in-vitro contact test, adult brown dog ticks; conditions: 5 μg/cm^2 (=500 g/ha), after 48 hours, read-out: efficacy (ticks dead or moribund)
Method: Rhipicephalus sanguineus—In-Vitro Contact Tests with Adult Brown Dog Ticks
(§1) 9 mg compound is solved in 1 mL acetone and diluted with acetone to the desired concentration. 250 μL of the test solution is filled in 25 mL glass test tubes and homogeneously distributed on the inner walls by rotation and tilting on a shaking device (2 h at 30 rpm). With a compound concentration of 900 ppm, an inner surface of 44.7 cm^2 and a homogeneous distribution, a dose of 5 μg/cm^2 is achieved.
After the solvent has evaporated, each test tube is filled with 5-10 adult brown dog ticks (Rhipicephalus sanguineus), closed with a perforated lid and incubated in a lying position at room temperature and relative humidity. After 48 hours efficacy is determined. The ticks are patted on the ground of the tubes and are incubated on a heating plate at 45-50° C. for at most 5 minutes Immotile or uncoordinated moving ticks, which are not able to escape the heat by climbing upwards, are marked as dead or moribund.
An efficacy of 100% means all ticks are dead or moribund; 0% means no ticks are dead or moribund.

[2] = test system: adult mosquitoes Culex quinquefasciatus strain P00; experiment: Culex quinquefasciatus test (CULXFA surface treatment & contact assay); conditions: surface concentration 20 mg/m^2, 30 minutes exposure, 24 hours after contact, read-out: efficacy (mortality)
How it was run: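 Compound dissolved at 2 mg/ml in acetone with 2000 ppm rapeseed oil methyl ester, pipetted onto glazed tile and acetone evaporated. Adult Culex quinquefasciatus strain P00 exposed to dried surface for 30 minutes; percent mortality scored 24 hours after contact.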

[3] = test system: adult flies Musca domestica strain WHO-N; experiment: Musca domestica test (MUSCDO surface treatment & contact assay); conditions: 24 hours after contact, read-out: efficacy (mortality); for mortality at 4 mg/m2: surface concentration 4 mg/m^2, 30 minutes exposure; for mortality at 20 mg/m2: surface concentration 20 mg/m^2, 30 minutes exposure
How it was run: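 Compound dissolved in acetone (2 mg/ml) with 2000 ppm rapeseed oil methyl ester and dried onto glazed tiles. Adult WHO-N strain flies were held on the treated surface for 30 minutes, with % mortality scored 24 hours after contact.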

[4] = test system: Rhipicephalus (Boophilus) microplus larvae (strain Parkhurst, resistant against synthetic pyrethroids); experiment: Rhipicephalus (Boophilus) microplus in-vitro contact test, larval cattle tick; conditions: 5 μg/cm^2 (=500 g/ha), after 48 hours, read-out: efficacy (larvae dead or moribund)
How it was run: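 Acetone solutions coated onto glass tube walls, 900 ppm giving 5 μg/cm^2; 20–50 larvae per tube after solvent evaporation. Incubated 48 h at 27 °C, 85% relative humidity; efficacy from negative geotaxis, 100% meaning all larvae dead or moribund.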

[5] = test system: larvae of the banded cucumber beetle (Diabrotica balteata); experiment: Diabrotica balteata spray test; conditions: 168 h, after 7 days, wheat seeds, read-out: efficacy (seedling growth); for pest or weed control at 32 µg/disc, 100 g/ha: 100 g/ha (=32 μg/well); for pest or weed control at 160 µg/disc, 500 g/ha: 500 g/ha (=160 μg/well)
How it was run: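 Germinated wheat seeds on agar (5 per well) were sprayed with compound formulated in acetone/DMF and diluted in water with 1000 ppm emulsifier. Each unit was then infested with 10–20 larvae. Efficacy % was scored after 7 days as seedling growth relative to an untreated, uninfested control (100% = normal growth).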

[6] = test system: fall armyworm larvae (Spodoptera frugiperda); experiment: Spodoptera frugiperda spray test; conditions: in Zea mays, 168 h
How it was run: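 Maize leaf sections were sprayed with compound in acetone/dimethylformamide diluted in water with 1000 ppm emulsifier, dried, then infested with larvae. Mortality in % was scored after 7 days, 100% meaning all caterpillars killed.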

[7] = test system: green peach aphid (Myzus persicae); experiment: Myzus persicae oral test; conditions: 120 h, after 5 days
Method: • Solvent: 100 parts by weight acetone
To produce a suitable preparation of active compound, 1 part by weight of active compound is mixed with the stated amount of solvent, and the concentrate is diluted with water to the desired concentration.
50 μL compound solution is filled in microtiter plates and 150 μL IPL41 insect medium (33%+15% sugar) is added to obtain a total volume of 200 μL per well. Afterwards the plates are sealed with parafilm through which a mixed population of the green peach aphid (Myzus persicae) can suck on the compound preparation.
After 5 days mortality in % is determined. 100% means all aphids have been killed and 0% means none of the aphids have been killed.

[8] = test system: adult cat fleas (Ctenocephalides felis); experiment: Ctenocephalides felis in-vitro contact test, adult cat flea; conditions: 5 μg/cm^2 (=500 g/ha), after 48 hours, read-out: efficacy (fleas dead or moribund)
Method: Ctenocephalides felis—In-Vitro Contact Tests Adult Cat Flea
as §1
After the solvent has evaporated, each test tube is filled with 5-10 adult cat fleas (Ctenocephalides felis), closed with a perforated lid and incubated in a lying position at room temperature and relative humidity. After 48 hours efficacy is determined. The fleas are patted on the ground of the tubes and are incubated on a heating plate at 45-50° C. for at most 5 minutes Immotile or uncoordinated moving fleas, which are not able to escape the heat by climbing upwards, are marked as dead or moribund.
An efficacy of 100% means all fleas are dead or moribund; 0% means no fleas are dead or moribund.

[9] = test system: adult mosquitoes Aedes aegypti strain MONHEIM; experiment: Aedes aegypti test (AEDSAE surface treatment & contact assay); conditions: 24 hours after contact, read-out: efficacy (mortality); for mortality at 4 mg/m2: surface concentration 4 mg/m^2, 30 minutes exposure; for mortality at 20 mg/m2: surface concentration 20 mg/m^2, 30 minutes exposure
How it was run: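 Compound in acetone (2 mg/ml) with 2000 ppm rapeseed oil methyl ester applied to glazed tile and dried; adult Aedes aegypti MONHEIM exposed on surface for 30 min. Percent mortality scored 24 h after contact.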

[10] = test system: southern root-knot nematode (Meloidogyne incognita); experiment: Meloidogyne incognita test; conditions: 20 ppm, after 14 days
Method: Meloidogyne incognita—Test
• Solvent: 125.0 parts by weight of acetone
To produce a suitable preparation of active compound, 1 part by weight of active compound is mixed with the stated amount of solvent, and the concentrate is diluted with water to the desired concentration. Vessels are filled with sand, a solution of the active ingredient, a suspension containing eggs and larvae of the southern root-knot nematode (Meloidogyne incognita) and salad seeds. The salad seeds germinate and the seedlings grow. Galls develop in the roots.
After 14 days the nematicidal activity is determined on the basis of the percentage of gall formation. 100% means no galls were found and 0% means the number of galls found on the roots of the treated plants was equal to that in untreated control plants.

[11] = test system: larvae of the southern green stink bug (Nezara viridula); experiment: Nezara viridula spray test; conditions: 96 h, after 4 days, barley plants
How it was run: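 Compound in acetone/DMF was diluted in water with 1000 ppm alkylarylpolyglycol ether emulsifier. Barley plants were sprayed with it, then infested with Nezara viridula larvae. Mortality % was scored after 4 days (100% = all killed).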

[12] = test system: green peach aphid (Myzus persicae); experiment: Myzus persicae spray test; conditions: foliar, 120 h, after 5 days, Chinese cabbage leaf disks
How it was run: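 Chinese cabbage leaf disks infested with all aphid instars were sprayed with compound in acetone/DMF, diluted in water with 1000 ppm alkylarylpolyglycol ether emulsifier. Mortality (%) scored after 5 days, 100% meaning all aphids killed.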

[13] = test system: adult engorged female ticks (Rhipicephalus microplus); experiment: Rhipicephalus (Boophilus) microplus injection test; conditions: 168 h, egg deposition monitored after 7 days, read-out: efficacy (infertile eggs); for pest or weed control at 4 µg/tick: 4 μg/tick injected
How it was run: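 Five adult engorged female ticks each injected with 1 μL of DMSO compound solution into the abdomen, then kept in a climate chamber. Fertile egg deposition assessed after 7 days, with hatching followed to about 42 days; efficacy 100% means all eggs infertile, 0% all fertile.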

[14] = test system: adult unfed cat fleas (Ctenocephalides felis); experiment: Ctenocephalides felis oral test; conditions: 48 h, 100 ppm in cattle blood, after 2 days
Method: Ctenocephalides felis—Oral Test
• Solvent: dimethyl sulfoxide
To produce a suitable preparation of active compound, 10 mg of active compound are dissolved in 0.5 mL solvent, and the concentrate is diluted with cattle blood to the desired concentration.
Approximately 20 adult unfed cat fleas (Ctenocephalides felts) are placed in flea chambers. The blood chamber, sealed with parafilm on the bottom, are filled with cattle blood supplied with compound solution and placed on the gauze covered top of the flea chamber, so that the fleas are able to suck the blood. The blood chamber is heated to 37° C. whereas the flea chamber is kept at room temperature.
After 2 days mortality in % is determined. 100% means all the fleas have been killed; 0% means none of the fleas have been killed.

| SMILES | pest or weed control at 5 µg/cm2, 5 µg/cm2 [4] | pest or weed control at 32 µg/disc, 100 g/ha [5] | mortality at 100 g/ha [6] | mortality at 4 ppm [7] | pest or weed control at 5 µg/cm2, 5 µg/cm2 [8] | mortality at 4 mg/m2 [9] | mortality at 20 mg/m2 [9] | nematicidal activity (gall formation) [10] | other results |
| --- | --- | --- | --- | --- | --- | --- | --- | --- | --- |
| C[C@H](NC(=O)c1cc(Cl)cc(C(C)(C)C#N)c1)c1ncnn1-c1ccc(C#N)cn1 [Example I-33, 3-Chloro-5-(2-cyanopropan-2-yl)-N-{(1S)-1-[1-(5-cyanopyridin-2-yl)-1H-1,2,4-triazol-5-yl]ethyl}benzamide] | 100% | 100% | 100% | 100% | 80% | 80 to 100% | 80 to 100% |  | pest or weed control at 5 µg/cm2, 5 µg/cm2 [1]: 100%; mortality at 20 mg/m2 [2]: 80 to 100%; mortality at 4 mg/m2 [3]: 80 to 100%; mortality at 20 mg/m2 [3]: 80 to 100% |
| COc1nc([C@H](C)NC(=O)c2cc(Cl)cc(C(C)(C)C#N)c2)n(-c2ccc(C#N)cn2)n1 [Example I-39] |  | 100% | 100% |  |  |  |  | 100% |  |
| C[C@H](NC(=O)c1cc(OCC(Cl)=C(Cl)Cl)cc(C(F)(F)F)c1)c1ncnn1-c1ccc(C#N)cn1 [Example I-24] |  | 100% | 100% |  |  |  |  | 90% | pest or weed control at 160 µg/disc, 500 g/ha [5]: 100%; mortality at 500 g/ha [6]: 100% |
| C[C@H](NC(=O)c1cc(OCC2CC2(Cl)Cl)cc(C(F)(F)F)c1)c1ncnn1-c1ncc(C#N)s1 (some centres unmarked) [Example I-30] |  | 100% |  | 90% | 80% |  |  |  |  |
| C[C@H](NC(=O)c1cc(Cl)cc(C(=O)C2CC2)c1)c1ncnn1-c1ccc(C#N)cn1 [Example I-35] | 100% | 100% | 100% | 100% | 100% | 80 to 100% | 80 to 100% |  | pest or weed control at 5 µg/cm2, 5 µg/cm2 [1]: 80%; mortality at 20 mg/m2 [2]: 80 to 100%; mortality at 4 mg/m2 [3]: 80 to 100%; mortality at 20 mg/m2 [3]: 80 to 100%; mortality at 100 g/ha [11]: 100% |
| C[C@H](NC(=O)c1cc(OC[S+](C)[O-])cc(C(F)(F)F)c1)c1ncnn1-c1ccc(C#N)cn1 (stereo partly drawn) [Example I-27, N-{(1S)-1-[1-(5-Cyanopyridin-2-yl)-1H-1,2,4-triazol-5-yl]ethyl}-3-[(methylsulfinyl)methoxy]-5-(trifluoromethyl)benzamide] | 100% | 100% | 100% | 100% |  | 80 to 100% | 80 to 100% |  | mortality at 100 g/ha [12]: 90%; pest or weed control at 160 µg/disc, 500 g/ha [5]: 100%; mortality at 500 g/ha [6]: 100%; mortality at 20 ppm ([7]; 20 ppm): 100%; mortality at 100 g/ha [11]: 100%; mortality at 500 g/ha [11]: 100% |
| C[C@H](NC(=O)c1cc(Cl)cc(Oc2ccc(F)cc2)c1)c1ncnn1-c1ccc(C#N)cn1 [Example I-9] | 90% |  |  |  |  |  |  | 90% | pest or weed control at 4 µg/tick [13]: 100%; pest or weed control at 20 µg/tick ([13]; 20 μg/tick injected): 100% |
| C[C@H](NC(=O)c1cc(Cl)cc(OC(C)(C)C#N)c1)c1ncnn1-c1ncc(C#N)s1 [Example I-61] |  | 100% | 100% |  |  |  |  | 90% |  |
| CCN(C)C(=O)c1ccc(-n2nc(C)nc2[C@H](C)NC(=O)c2cc(Cl)cc(C(C)(C)C#N)c2)nc1 [Example I-52, 6-[5-[(1S)-1-[[3-chloro-5-(1-cyano-1-methyl-ethyl)benzoyl]amino]ethyl]-3-methyl-1,2,4-triazol-1-yl]-N-ethyl-N-methyl-pyridine-3-carboxamide] | 90% |  | 100% |  |  |  |  | 100% | mortality at 500 g/ha [11]: 100% |
| C[C@H](NC(=O)c1cc(Br)cc(C(F)(F)c2ccc(F)cc2)c1)c1ncnn1-c1ccc(C#N)cn1 [Example I-25] | 100% |  | 100% |  |  |  |  | 90% | pest or weed control at 4 µg/tick [13]: 100%; mortality at 100 ppm [14]: 90% |
